Source: patent US11840686B2, “Modulation of prekallikrein (PKK) expression” (Ionis Pharmaceuticals, Inc., priority 2013, dated 2023)
Strand notation (5' to 3'): a small letter for the sugar, then the base; units joined by * are phosphorothioate-linked, units joined directly phosphodiester-linked; [ ] holds rarer units or linkages, { } end groups; capitals alone tell only the bases. e = 2'-O-(2-methoxyethyl) (MOE); [5mC] = 5-methylcytosine; d = 2'-deoxy (DNA)

Test system: human PKK mRNA
Experiment: Antisense inhibition of human PKK mRNA in HepaRG cells, 3,000 nM (Example 1)
Type: cell-based
Settings: relative to untreated control cells
Method in brief: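 HepaRG cells, 20,000 per well, were electroporated with 3,000 nM 5-10-5 MOE gapmer (phosphorothioate, 5-methylcytosine). After about 24 h, PKK mRNA was measured by qRT-PCR with primer probe set RTS3454 and normalised to RIBOGREEN total RNA. Values are percent inhibition versus untreated cells.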

[1] = Table 3, HepaRG cells, electroporation with 3,000 nM antisense oligonucleotide, approx. 24 hours, PKK mRNA by RT-PCR (RTS3454)
[2] = Table 1, PKK mRNA, HepaRG cells, 3,000 nM, electroporation, ~24 h
[3] = Table 4, HepaRG cells, electroporation with 3,000 nM antisense oligonucleotide, approx. 24 hours, PKK mRNA by RT-PCR (RTS3454)
[4] = Table 2, PKK mRNA, HepaRG cells, 3,000 nM, electroporation, ~24 h

531092 (e[5mC]*e[5mC]*eT*eT*e[5mC]*dA*d[5mC]*dT*dG*dA*d[5mC]*dT*d[5mC]*dT*d[5mC]*eT*eT*eT*eT*e[5mC]; antisense) [compound 531092]
% inhibition [1]: 24%

530958 (antisense eT*eT*eA*eA*eA*dA*dT*dT*dG*dA*d[5mC]*dT*d[5mC]*d[5mC]*dT*e[5mC]*eT*e[5mC]*eA*eT) [compound 530958]
% inhibition [2]: 60%

531222 (eG*eG*e[5mC]*eA*eA*dG*d[5mC]*dT*dG*dT*dA*d[5mC]*dA*dA*dG*eA*eA*eA*eA*eA; antisense) [compound 531222]
% inhibition [3]: 19%

530941 (antisense eA*eA*e[5mC]*eT*eG*dT*dA*dG*d[5mC]*dA*dA*dA*d[5mC]*dA*dA*eG*eG*eA*eA*eA) [compound 530941]
% inhibition [2]: 22%

530946 (antisense eT*eA*e[5mC]*eA*eT*d[5mC]*d[5mC]*d[5mC]*d[5mC]*dA*d[5mC]*d[5mC]*dT*d[5mC]*dT*eG*eA*eA*eG*eA) [compound 530946]
% inhibition [2]: 0%

531134 (antisense eT*eT*eA*e[5mC]*e[5mC]*d[5mC]*dA*dT*d[5mC]*dA*dA*dA*dG*d[5mC]*dA*eG*eT*eG*eG*eG) [compound 531134]
% inhibition [1]: 6%

531229 (e[5mC]*eT*eT*e[5mC]*eA*dA*dA*dG*d[5mC]*d[5mC]*dA*dG*d[5mC]*dA*dG*eT*eG*eT*eA*eA; antisense) [compound 531229]
% inhibition [3]: 69%

531093 (eT*eT*e[5mC]*eT*e[5mC]*d[5mC]*dT*dG*dG*d[5mC]*dT*d[5mC]*dA*dG*dA*eA*eG*e[5mC]*eT*e[5mC]; antisense) [compound 531093]
% inhibition [1]: 60%

531116 (antisense eT*eT*eG*eT*eT*dA*dA*dG*dG*dT*dT*dG*dT*dA*dG*eA*eG*eA*eG*eA) [compound 531116]
% inhibition [1]: 23%

531050 (antisense eT*eT*eG*eG*eG*dT*dT*dA*dT*dT*dT*dT*dA*dT*dA*eA*eT*e[5mC]*eT*eT) [compound 531050]
% inhibition [4]: 18%

530983 (antisense eA*eT*eG*eG*e[5mC]*dA*dG*dG*dG*dT*dT*d[5mC]*dA*dG*dG*eT*eA*eA*eA*eG) [compound 530983]
% inhibition [2]: 9%

531136 (antisense eT*eA*eA*e[5mC]*eA*dT*dT*dT*d[5mC]*dT*dA*dT*dG*dG*dG*e[5mC]*e[5mC]*eT*eG*eA) [compound 531136]
% inhibition [1]: 6%

531039 (antisense eT*eA*e[5mC]*e[5mC]*e[5mC]*dA*dA*d[5mC]*dA*dG*dT*dT*dG*dG*dT*eA*eT*eA*eA*eA) [compound 531039]
% inhibition [4]: 36%

531111 (antisense e[5mC]*eT*eT*e[5mC]*eT*d[5mC]*d[5mC]*dT*dG*dG*d[5mC]*dT*d[5mC]*dA*dG*eA*eA*eG*e[5mC]*eT) [compound 531111]
% inhibition [1]: 68%

531117 (antisense eA*e[5mC]*e[5mC]*e[5mC]*eA*dA*dT*dT*dA*dT*dT*dT*dT*dT*dA*eA*eT*eG*eG*e[5mC]) [compound 531117]
% inhibition [1]: 62%

531062 (antisense e[5mC]*eA*eG*eG*eT*dT*dG*d[5mC]*dT*d[5mC]*d[5mC]*d[5mC]*dT*dG*d[5mC]*eG*eG*eG*e[5mC]*eA) [compound 531062]
% inhibition [4]: 39%

531223 (eT*eG*eT*eA*e[5mC]*dT*d[5mC]*dA*d[5mC]*d[5mC]*dG*dG*dT*dA*d[5mC]*eT*e[5mC]*eT*eG*e[5mC]; antisense) [compound 531223]
% inhibition [3]: 58%

531097 (eA*e[5mC]*e[5mC]*eA*eA*dG*d[5mC]*dT*d[5mC]*dA*dG*d[5mC]*d[5mC]*dT*d[5mC]*e[5mC]*eA*eA*e[5mC]*eT; antisense) [compound 531097]
% inhibition [1]: 41%

531157 (antisense eA*eA*eG*eT*eG*dA*dA*dT*d[5mC]*dA*dG*dA*dG*d[5mC]*dA*eG*eT*eG*eT*eA) [compound 531157]
% inhibition [1]: 46%

530995 (eA*eG*eT*e[5mC]*eT*d[5mC]*dT*dT*dG*dG*d[5mC]*dA*dA*dA*d[5mC]*eA*eT*eT*e[5mC]*eA; antisense) [compound 530995]
% inhibition [2]: 49%

531028 (antisense eA*eA*eT*eT*e[5mC]*dA*dA*dA*dG*dG*dA*dG*d[5mC]*d[5mC]*dT*eG*eG*eA*eG*eT) [compound 531028]
% inhibition [4]: 56%

531030 (antisense eA*eA*eT*eT*e[5mC]*dA*dG*dT*dG*dT*dA*dA*dT*dT*d[5mC]*eA*eA*eA*eG*eG) [compound 531030]
% inhibition [4]: 24%

530936 (antisense eT*eG*e[5mC]*eT*eT*dG*d[5mC]*dT*dT*dG*dA*dA*dT*dA*dA*eA*eA*eT*e[5mC]*eA) [compound 530936]
% inhibition [2]: 27%

531196 (eT*eT*eG*eA*eG*dT*d[5mC]*dA*dG*dA*d[5mC]*dA*dT*d[5mC]*d[5mC]*eT*eG*eT*eG*eA; antisense) [compound 531196]
% inhibition [3]: 38%

531070 (e[5mC]*eT*eG*eT*eG*dT*dT*dT*dT*d[5mC]*dT*d[5mC]*dT*dA*dA*eA*eA*eT*e[5mC]*e[5mC]; antisense) [compound 531070]
% inhibition [4]: 68%

531105 (e[5mC]*eT*e[5mC]*e[5mC]*eT*d[5mC]*d[5mC]*d[5mC]*d[5mC]*dA*dG*dG*d[5mC]*dT*dG*e[5mC]*eT*e[5mC]*e[5mC]*eT; antisense) [compound 531105]
% inhibition [1]: 16%

531114 (antisense eA*eG*eA*eG*eT*d[5mC]*dA*dA*dG*dT*d[5mC]*d[5mC]*dA*d[5mC]*dA*eG*eA*e[5mC]*eA*eT) [compound 531114]
% inhibition [1]: 40%

530994 (e[5mC]*eT*eT*eG*eG*d[5mC]*dA*dA*dA*d[5mC]*dA*dT*dT*d[5mC]*dA*e[5mC]*eT*e[5mC]*e[5mC]*eT; antisense) [compound 530994]
% inhibition [2]: 50%

531024 (eT*eT*eT*eA*eT*dT*dT*dG*dT*dG*dA*dG*dA*dA*dA*eG*eG*eT*eG*eT; antisense) [compound 531024]
% inhibition [4]: 69%

531219 (e[5mC]*eT*eT*e[5mC]*eT*d[5mC]*dT*dA*dT*d[5mC]*dT*d[5mC]*d[5mC]*d[5mC]*dA*eG*eT*eG*eT*eT; antisense) [compound 531219]
% inhibition [3]: 61%

531132 (antisense eA*eG*eT*eG*eA*dG*dG*dT*dT*dA*d[5mC]*dT*d[5mC]*dA*d[5mC]*e[5mC]*eA*eG*eA*eG) [compound 531132]
% inhibition [1]: 0%

530953 (antisense eG*eA*eA*eA*eA*d[5mC]*dT*dG*dA*dA*dT*dA*dG*d[5mC]*dA*eA*eA*e[5mC]*eA*e[5mC]) [compound 530953]
% inhibition [2]: 7%

531214 (eT*eT*eT*eT*eT*d[5mC]*dT*dT*dT*dA*dA*dA*dT*dT*dT*eT*eG*e[5mC]*eT*eA; antisense) [compound 531214]
% inhibition [3]: 37%

530935 (antisense eG*e[5mC]*eT*eT*eG*dA*dA*dT*dA*dA*dA*dA*dT*d[5mC]*dA*eT*eT*e[5mC]*eT*eG) [compound 530935]
% inhibition [2]: 0%

530973 (antisense eG*eA*eG*eG*eA*dG*dT*dA*dG*dA*dG*dG*dA*dA*d[5mC]*eT*eT*eG*eG*eT) [compound 530973]
% inhibition [2]: 52%

530976 (antisense eA*eT*eA*eT*eG*dG*dT*dG*dT*dT*dT*dT*d[5mC]*dT*dT*eG*eA*eG*eG*eA) [compound 530976]
% inhibition [2]: 26%

530947 (antisense eG*eA*eA*eG*e[5mC]*dT*dA*d[5mC]*dA*dT*d[5mC]*d[5mC]*d[5mC]*d[5mC]*dA*e[5mC]*e[5mC]*eT*e[5mC]*eT) [compound 530947]
% inhibition [2]: 27%

531016 (eT*eG*eT*e[5mC]*e[5mC]*dT*dA*dT*dG*dA*dG*dT*dG*dA*d[5mC]*e[5mC]*e[5mC]*eT*e[5mC]*e[5mC]; antisense) [compound 531016]
% inhibition [4]: 39%

531174 (antisense eT*eG*eT*eT*eA*dA*dG*dT*dA*dT*dA*dT*dT*dA*dA*e[5mC]*eT*eA*eT*eT) [compound 531174]
% inhibition [3]: 10%

531226 (eG*eA*e[5mC]*eA*eG*dT*dA*dG*dA*dG*dA*d[5mC]*dT*dG*dG*eG*eA*eA*eG*eG; antisense) [compound 531226]
% inhibition [3]: 12%

531035 (antisense eG*eT*eA*eG*eG*d[5mC]*dA*dT*dA*dT*dT*dG*dG*dT*dT*eT*eT*eT*eG*eG) [compound 531035]
% inhibition [4]: 46%

530952 (antisense e[5mC]*eT*eG*eA*eA*dT*dA*dG*d[5mC]*dA*dA*dA*d[5mC]*dA*d[5mC]*e[5mC]*eT*eT*eG*eG) [compound 530952]
% inhibition [2]: 38%

531034 (antisense e[5mC]*eA*eT*eA*eT*dT*dG*dG*dT*dT*dT*dT*dT*dG*dG*eA*eA*eT*eT*e[5mC]) [compound 531034]
% inhibition [4]: 36%

531020 (eA*eA*eG*e[5mC]*e[5mC]*d[5mC]*dA*dT*d[5mC]*dA*dA*dA*dG*d[5mC]*dA*eG*eT*eG*eG*eG; antisense) [compound 531020]
% inhibition [4]: 0%

530940 (antisense eT*eA*eG*e[5mC]*eA*dA*dA*d[5mC]*dA*dA*dG*dG*dA*dA*dA*eT*eG*eA*eA*eA) [compound 530940]
% inhibition [2]: 7%
